For one compound, KD, binding and ΔTm results are on record in publication PMC12041855 (2025).

Experiment [1] deals with Zar1 5′-UTR (RNA, G4) UGGGCGGGCGAGGCGCGGGACGCACCC
Description: ITC. Conditions: 60 mM KCl, 25 mM KH2PO4; pH 7.4, 0.4% DMSO, 25°C; one set of sites; 10 μM RNA, 100 μM BYBX in syringe.

Experiment [2] deals with Zar1 5′-UTR^ΔrG4 (RNA, single strand) UGAACAAACGAAACACGAAACGCACCC
Briefly: fluorescence titration (ex 447 nm, em 538 nm). Conditions: 100 mM KCl; 10 mM Tris-HCl pH 7.4, 25°C; 1 μM BYBX; almost no emission.

The test system is the same in experiment [3]. Description: CD melting at 262 nm. Conditions: 20 mM KCl; 10 mM Tris-HCl pH 7.4; 10 μM BYBX, 5 μM RNA; no melting transition seen.
The subject of experiment [4] is Zar1 5′-UTR (RNA, G4) UGGGCGGGCGAGGCGCGGGACGCACCC
Description: CD titration. Conditions: 100 mM KCl; 10 mM Tris-HCl pH 7.4, 25°C; 5 μM RNA, 5-20 μM BYBX.

The test system of experiment [5] is Zar1 5′-UTR^ΔrG4 (RNA, single strand) UGAACAAACGAAACACGAAACGCACCC
Briefly: ITC. Conditions: 60 mM KCl, 25 mM KH2PO4; pH 7.4, 0.4% DMSO, 25°C; n.d., signal too weak; 100 μM BYBX in syringe.

Experiment [6] has as its system Zar1 5′-UTR (RNA, G4) UGGGCGGGCGAGGCGCGGGACGCACCC
Briefly: CD melting at 262 nm. Conditions: 20 mM KCl; 10 mM Tris-HCl pH 7.4; 10 μM BYBX, 5 μM RNA.

The test system is the same in experiment [7]. Briefly: fluorescence titration (ex 447 nm, em 538 nm). Conditions: 100 mM KCl; 10 mM Tris-HCl pH 7.4, 25°C; 1 μM BYBX, RNA 0-1.9 μM; 50-fold enhancement.

The compound `CN1/C(=C/C2=[N+](CC(N)=O)c3ccc4ccccc4c3C2(C)C)Sc2ccccc21` had a KD in experiment [1] of 393 nM. In addition, the binding result is recorded as “no” in experiment [2], “yes” in experiment [4], “no” in experiment [5] and “yes” in experiment [7]. Also, the ΔTm in experiment [3] is 0.06 °C; in experiment [6], 11 °C.

The KD is the equilibrium constant for the complex coming apart. Lower therefore signals a tighter complex. One may read the ΔTm as the shift of the melting midpoint relative to a reference.
